Measured values as given in PubChem BioAssay AID1919010 (Molecular Pharmacology Branch, DTP, NCI, 2023).

Test system: Hs578T complex spheroid growth, percent test/control
Experiment: Anticancer human tumor Hs578T cell line growth inhibition [AhR];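 also: luminescent viability signal as a proxy for spheroid growth; spheroids exposed to agents for one week after three days of growth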
Details: for IC50: curve of first compound; for viability, T/C: stronger effect = lower value
Procedure, shortened: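 Spheroids combined tumor cells with HUVEC endothelial cells and human MSCs as stroma. AhR antagonists were paired with standard or investigational drugs, each dosed in half-log steps down from near clinical Cmax, or from 10 microM where Cmax was unknown.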

IC50 (second compound 0.1 µM): 2590 nM
IC50 (second compound 0.316 µM): 2510 nM
IC50 (second compound 1 µM): 2780 nM
IC50 (second compound 3.16 µM): 2420 nM
IC50 (second compound 10 µM): 2290 nM
SMILES: O=C(C=Cc1cccc(S(=O)(=O)Nc2ccccc2)c1)NO + CC(CO)NC(=O)c1cc(-c2ccc(Cl)cc2)nn(-c2cnn(C)c2)c1=O
viability, T/C (second compound 0.1 µM, first compound 0.0316 µM): 112%
viability, T/C (second compound 0.1 µM, first compound 0.1 µM): 113%
viability, T/C (second compound 0.1 µM, first compound 0.316 µM): 102%
viability, T/C (second compound 0.1 µM, first compound 1 µM): 82.6%
viability, T/C (second compound 0.1 µM, first compound 3.16 µM): 43.2%
viability, T/C (second compound 0.1 µM, first compound 10 µM): 2.61%
viability, T/C (second compound 0.316 µM, first compound 0.0316 µM): 115%
viability, T/C (second compound 0.316 µM, first compound 0.1 µM): 116%
viability, T/C (second compound 0.316 µM, first compound 0.316 µM): 103%
viability, T/C (second compound 0.316 µM, first compound 1 µM): 82.5%
viability, T/C (second compound 0.316 µM, first compound 3.16 µM): 41.8%
viability, T/C (second compound 0.316 µM, first compound 10 µM): 2%
viability, T/C (second compound 1 µM, first compound 0.0316 µM): 109%
viability, T/C (second compound 1 µM, first compound 0.1 µM): 117%
viability, T/C (second compound 1 µM, first compound 0.316 µM): 106%
viability, T/C (second compound 1 µM, first compound 1 µM): 89.8%
viability, T/C (second compound 1 µM, first compound 3.16 µM): 45.1%
viability, T/C (second compound 1 µM, first compound 10 µM): 2.32%
viability, T/C (second compound 3.16 µM, first compound 0.0316 µM): 106%
viability, T/C (second compound 3.16 µM, first compound 0.1 µM): 113%
viability, T/C (second compound 3.16 µM, first compound 0.316 µM): 107%
viability, T/C (second compound 3.16 µM, first compound 1 µM): 80.8%
viability, T/C (second compound 3.16 µM, first compound 3.16 µM): 41.1%
viability, T/C (second compound 3.16 µM, first compound 10 µM): 2.02%
viability, T/C (second compound 10 µM, first compound 0.0316 µM): 93.5%
viability, T/C (second compound 10 µM, first compound 0.1 µM): 94.8%
viability, T/C (second compound 10 µM, first compound 0.316 µM): 93.6%
viability, T/C (second compound 10 µM, first compound 1 µM): 70.5%
viability, T/C (second compound 10 µM, first compound 3.16 µM): 42.1%
viability, T/C (second compound 10 µM, first compound 10 µM): 1.62%
